# Several values for one entry are separate records, joined by “and”; a condition that tells them apart may be missing. Equal values may be shown once.
# System: human bone marrow MSC
# Assay: Microarray gene expression analysis of MSC (Illumina Human HT12 Expression BeadChip)
# Assay type: cell-based
# Conditions: 24 h
# Procedure: Human bone marrow MSC were expanded and seeded into six (6) T225 flasks using standard growth medium (Table 1). At 95-99% confluency, cells were thoroughly washed with PBS. Three (3) flasks were replenished with basal media containing 250 μg/mL treprostinil, (+)Tre, and the remaining three (3) flasks were replenished with unsupplemented basal media, (−)Tre. After 24 hours of culture, representative images were captured from (+) Tre and (−) Tre cultures. Conditioned media was collected from each replicate, divided into two samples of appropriate volumes, and analyzed separately for: 1) secreted proteins (Myriad RBM InflammationMAP® 1.0) and 2) exosome RNA content. Cells were lysed directly from culture flasks, processed for total RNA isolation, and analyzed for gene expression by microarray (Illumina Human HT12 Expression BeadChip). Microarray gene expression analysis was also performed on MSC from cultures without (−) or with (+) 250 ug/mL treprostinil. Three (3) biological replicates from each condition were analyzed. Of the 77,612 sequences identified among all replicates, only 24,273 were detected above the arbitrary background of 50 counts. 2,984 RNA sequences were unique to Tre(−) cultures, while 1,781 RNA sequences were unique to Tre(+) cultures (panel A). Genes detected in both conditions were further analyzed for differential expression (panel). […] Genes that are expressed only in Tre(−) cultures (that is to say, completely turned off in the Tre(+) cultures) are shown in Table 5.
structure (smiles),measurement,setting,value
CCCCC[C@H](O)CC[C@@H]1[C@H]2Cc3cccc(OCC(=O)O)c3C[C@H]2C[C@H]1O [treprostinil],"ACTN1 (NM_001130005) Fold Change, decrease in Tre(+) vs Tre(−)",250 μg/mL,12.7 fold
same,"ANGPT1 (NM_001146) Fold Change, decrease in Tre(+) vs Tre(−)",250 μg/mL,14.6 fold
same,"ANK3 (NM_001204403) Fold Change, decrease in Tre(+) vs Tre(−)",250 μg/mL,14.2 fold
same,"ANLN (NM_018685) Fold Change, decrease in Tre(+) vs Tre(−)",250 μg/mL,11.7 fold
same,"C11orf96 (NM_001145033) Fold Change, increase in Tre(+) vs Tre(−)",250 μg/mL,12.0 fold
same,"C13orf33 (NM_032849) Fold Change, increase in Tre(+) vs Tre(−)",250 μg/mL,21.0 fold
same,"CD55 (NM_000574) Fold Change, increase in Tre(+) vs Tre(−)",250 μg/mL,21.5 fold
same,"CD55 (NM_001114752) Fold Change, increase in Tre(+) vs Tre(−)",250 μg/mL,13.2 fold
same,"CELF1 (NM_001172640) Fold Change, decrease in Tre(+) vs Tre(−)",250 μg/mL,10.9 fold
same,"COL6A3 (NM_004369) Fold Change, decrease in Tre(+) vs Tre(−)",250 μg/mL,11.7 fold
same,"COL21A1 (NM_030820) Fold Change, decrease in Tre(+) vs Tre(−)",250 μg/mL,27.4 fold
same,"CPA4 (NM_016352) Fold Change, decrease in Tre(+) vs Tre(−)",250 μg/mL,12.0 fold
same,"CTGF (NM_001901) Fold Change, decrease in Tre(+) vs Tre(−)",250 μg/mL,31.1 fold
same,"CXCL12 (NM_199168) Fold Change, decrease in Tre(+) vs Tre(−)",250 μg/mL,15.8 fold
same,"DDAH1 (NM_001134445) Fold Change, decrease in Tre(+) vs Tre(−)",250 μg/mL,12.7 fold
same,"DKFZp547J0510 (CDNA FLJ42650 fis, clone BRACE3027478) Fold Change, decrease in Tre(+) vs Tre(−)",250 μg/mL,13.0 fold
same,"DUSP1 (NM_004417) Fold Change, increase in Tre(+) vs Tre(−)",250 μg/mL,12.9 fold
same,"EPB41L2 (NM_001199389) Fold Change, decrease in Tre(+) vs Tre(−)",250 μg/mL,11.2 fold
same,"GDF5 (NM_000557) Fold Change, decrease in Tre(+) vs Tre(−)",250 μg/mL,12.5 fold
same,"GDF15 (NM_004864) Fold Change, increase in Tre(+) vs Tre(−)",250 μg/mL,32.1 fold
same,"GPRC5A (NM_003979) Fold Change, increase in Tre(+) vs Tre(−)",250 μg/mL,13.2 fold
same,"HSD11B1 (NM_005525) Fold Change, increase in Tre(+) vs Tre(−)",250 μg/mL,15.4 fold
same,"IDH1 (NM_005896) Fold Change, increase in Tre(+) vs Tre(−)",250 μg/mL,13.1 fold
same,"IER3 (NM_003897) Fold Change, increase in Tre(+) vs Tre(−)",250 μg/mL,22.5 fold
same,"IGFBP1 (NM_000596) Fold Change, increase in Tre(+) vs Tre(−)",250 μg/mL,118.2 fold
same,"IL6 (NM_000600) Fold Change, increase in Tre(+) vs Tre(−)",250 μg/mL,109.5 fold
same,"ISLR (NM_005545) Fold Change, decrease in Tre(+) vs Tre(−)",250 μg/mL,10.1 fold
same,"LIPG (NM_006033) Fold Change, increase in Tre(+) vs Tre(−)",250 μg/mL,13.2 fold
same,"LMOD1 (NM_012134) Fold Change, decrease in Tre(+) vs Tre(−)",250 μg/mL,26.4 fold
same,"MEST (NM_002402) Fold Change, decrease in Tre(+) vs Tre(−)",250 μg/mL,15.1 fold
same,"MEST (NM_177525) Fold Change, decrease in Tre(+) vs Tre(−)",250 μg/mL,11.9 fold
same,"METTL7A (NM_014033) Fold Change, decrease in Tre(+) vs Tre(−)",250 μg/mL,11.9 fold
same,"MXRA5 (NM_015419) Fold Change, decrease in Tre(+) vs Tre(−)",250 μg/mL,32.6 fold
same,"NR4A2 (NM_006186) Fold Change, increase in Tre(+) vs Tre(−)",250 μg/mL,12.5 fold
same,"OLFML1 (NM_198474) Fold Change, decrease in Tre(+) vs Tre(−)",250 μg/mL,12.4 fold
same,"OLFML2B (NM_015441) Fold Change, decrease in Tre(+) vs Tre(−)",250 μg/mL,20.8 fold
same,"PALLD (NM_001166109) Fold Change, decrease in Tre(+) vs Tre(−)",250 μg/mL,13.0 fold
same,"PALLD (NM_001166110) Fold Change, increase in Tre(+) vs Tre(−)",250 μg/mL,13.3 fold
same,"PDE5A (NM_033430) Fold Change, decrease in Tre(+) vs Tre(−)",250 μg/mL,15.2 fold
same,"PITPNC1 (NM_181671) Fold Change, increase in Tre(+) vs Tre(−)",250 μg/mL,16.0 fold
same,"PLIN2 (NM_001122) Fold Change, increase in Tre(+) vs Tre(−)",250 μg/mL,47.0 fold
same,"PRELP (NM_002725) Fold Change, decrease in Tre(+) vs Tre(−)",250 μg/mL,12.9 fold
same,"PRKAG2 (NM_024429) Fold Change, increase in Tre(+) vs Tre(−)",250 μg/mL,78.6 fold
same,"PTP4A1 (NM_003463) Fold Change, increase in Tre(+) vs Tre(−)",250 μg/mL,11.8 fold
same,"RCAN1 (NM_203418) Fold Change, increase in Tre(+) vs Tre(−)",250 μg/mL,10.9 fold
same,"RCAN2 (NM_001251974) Fold Change, decrease in Tre(+) vs Tre(−)",250 μg/mL,11.6 fold
same,"RND3 (NM_005168) Fold Change, increase in Tre(+) vs Tre(−)",250 μg/mL,12.9 fold
same,"S100A4 (NM_002961) Fold Change, decrease in Tre(+) vs Tre(−)",250 μg/mL,10.5 fold
same,"SAT1 (transcript variant 2, non-coding RNA) Fold Change, increase in Tre(+) vs Tre(−)",250 μg/mL,13.5 fold
same,"SCG2 (NM_003469) Fold Change, increase in Tre(+) vs Tre(−)",250 μg/mL,21.3 fold
same,"SIK1 (NM_173354) Fold Change, increase in Tre(+) vs Tre(−)",250 μg/mL,20.3 fold
same,"SLC2A12 (NM_145176) Fold Change, decrease in Tre(+) vs Tre(−)",250 μg/mL,12.2 fold
same,"SLC3A2 (NM_001013251) Fold Change, increase in Tre(+) vs Tre(−)",250 μg/mL,10.5 fold
same,"SLC6A15 (NM_182767) Fold Change, increase in Tre(+) vs Tre(−)",250 μg/mL,23.7 fold
same,"SLC14A1 (NM_015865) Fold Change, decrease in Tre(+) vs Tre(−)",250 μg/mL,18.5 fold
same,"SREBF1 (NM_004176) Fold Change, increase in Tre(+) vs Tre(−)",250 μg/mL,11.5 fold
same,"SYNPO2 (NM_001128933) Fold Change, decrease in Tre(+) vs Tre(−)",250 μg/mL,24.6 fold
same,"VEGFA (NM_001025370) Fold Change, increase in Tre(+) vs Tre(−)",250 μg/mL,13.5 fold
same,"VEGFA (NM_001171626) Fold Change, increase in Tre(+) vs Tre(−)",250 μg/mL,11.5 fold
same,"ANGPTL4 (NM_139314) expression, Rep 1-3",Tre(+) 250 μg/mL,1570 counts and 2337 counts and 1371 counts
same,"ANLN (NM_018685) expression, Rep 1-3",Tre(+) 250 μg/mL,67 counts and 68 counts and 37 counts
